Assay results: paper PMC11480411, “Mucosal sugars delineate pyrazine vs pyrazinone autoinducer signaling in Klebsiella oxytoca” (Nature Communications, 2024)

Assays:
[1] = system: wildtype K. oxytoca ATCC 8724; test: Leupeptin detection in culture extracts by HPLC-QTOF-MS; format: cell-based, Klebsiella oxytoca; settings: added to cultivation medium
Protocol: (§1) 5 mL of the leupeptin reporter strain was cultured aerobically in 10 g/L of LB (Becton Dickinson), yeast extract, GAM (HiMedia Laboratories), horse liver extract (HiMedia Laboratories), malt extract (VWR), meat extract (HiMedia Laboratories), YPD (Dot Scienticifc), brain heart infusion (Becton Dickinson), porcine mucin (Sigma-Aldrich, M1778), clostridial (Becton Dickinson), TSB (VWR), or casamino acid supplemented (5 g/L, VWR) M9 minimal salts (MP Biomedicals) at 30 °C for 24 h at 250 rpm. Cultures were lysed via sonication, centrifuged, and 150 µL of the supernatants were aliquoted into black well clear bottom 96 well plates. GFP fluorescence measurements were performed on a BioTek Synergy H1 plate reader with an excitation wavelength of 488 nm and an emission wavelength of 525 nm. For the carbohydrate screen, the leupeptin reporter strain was cultured in M9 minimal medium (MPbio) supplemented with casamino acid (5 g/L, VWR) and 0.4% indicated sugar aerobically at 30 °C for 24 h at 250 rpm.
For MS-based determination of leupeptin activation, wildtype K. oxytoca ATCC 8724 was cultured in 5 mL of M9 minimal medium supplemented with 5 g/L casamino acids and 0.4% Neu5Ac. […] To measure the area under the curves for specific molecular features, the exact monoprotonated [M + H]^+ mass was calculated and extracted ion chromatographs (EICs) with a 10-ppm error were constructed. […]

K. oxytoca = test: Culture growth (OD600) with sialic acid supplementation; format: cell-based, Klebsiella oxytoca; settings: M9+CAS with sialic acid, peer review file, not added to the study
Protocol: as 2 times the recorded value). Importantly, all cultures in this experiment grew. […]
supplemented cultures. All cultures had reached stationary phase after 24 hours. While Neu5Gc cultures did grow slower than Neu5Ac cultures, the term suppression was incorrect. Therefore, we deleted text around Neu5Gc suppression and have changed line 123 to now read: […]
the SI. The following growth analysis was not added to the study.
2. Fig3 describes the role of PLP-enzyme for the production of pyrazines (features 5-9). From
Fig.3a it is clear that features 5 and 7 are different from 6, 8, and 9. Are there functional differences between these 2 groups of compounds in terms of siderophore production? […]
complementation of the pyr mutant with feature 7 could induce siderophore production (Fig4).
What about the features from the other group (6, 8, and 9)?
To address this comment, we performed RNA-seq analysis feeding compound 6 and looked at regulated genes/operons. Similar to compound 7, compound 6 supplementation increased the […]
a table listing specific genes, is now included in the SI. As such, lines 345-348 now read: […]
compound also differentially regulated the transcriptome (201 genes with Padj < 0.05; abs(log2FC) > 1) and enhanced the transcription of genes related to iron acquisition and iron metabolism (Supplemental Information).”
(also on this page, place not known: value ). PLP -enzyme -9). […]

[2] = system: leup operon (leupeptin BGC) promoter in K. oxytoca ATCC 8724; test: GFP-based transcriptional reporter for the leup operon; format: cell-based, Klebsiella oxytoca; settings: carbohydrate screen, M9 + casamino acid + 0.4% indicated sugar, 30 °C, 24 h
Description: We previously examined a panel of 84 clinical K. oxytoca isolates (including recently renamed Klebsiella michiganensis isolates) for the presence of either the leup operon or npsB, an NRPS of the tilimycin/tilivalline gene cluster. […] While the roles of tilivalline and tilimycin in hemorrhagic colitis are well studied[8],[9], the operon for leupeptin biosynthesis is “silent” in K. oxytoca under typical laboratory culture conditions (i.e., leupeptin production is undetectable). Therefore, our study commenced by exploring growth conditions required to trigger leupeptin biosynthesis in K. oxytoca. To achieve this, we generated a green fluorescent protein (GFP)-based reporter system to monitor leup transcription in K. oxytoca ATCC 8724 (recently renamed as Klebsiella michiganensis (ATCC 8724), Fig. 1a). We utilized λ-red recombineering techniques[38] to replace the first biosynthetic gene (leupA) of the leupeptin BGC with a GFP-spectinomycin resistance cassette. […] Consequently, conditions that elicit transcription of the leupeptin BGC can be monitored by GFP fluorescence intensity.
as §1

S. enterica Typhimurium = system: S. enterica Typhimurium; parameters: method as in PMID 36929450; settings: 100 µM (supra-physiological); cited from earlier work

## CC(=O)N[C@H]1[C@H]([C@H](O)[C@H](O)CO)OC(O)(C(=O)O)C[C@@H]1O (some centres unmarked) [Neu5Ac, N-acetylneuraminic acid]
[1]
  induction of leupeptin (1) production: robust detection of leupeptin
K. oxytoca
  culture growth: grew fastest
[2]; leup GFP reporter strain
  GFP fluorescence, GFP Strain + Media: 85763 RFU
[2]; wildtype K. oxytoca without reporter (background)
  GFP fluorescence, WT + Media: 8846 RFU

## Cc1c[nH]c(=O)c(C)n1 [DPO, dimethylpyrazine-2-ol]
S. enterica Typhimurium
  effect on iron acquisition pathways: downregulated iron acquisition pathways
